The subject of assay [1] is Staphylococcus aureus. Description: Antibiofilm activity against methicillin-resistant Staphylococcus aureus ATCC 43300 measured after overnight incubation by crystal violet-staining based assay. Type of assay: functional.
The subject of assay [2] is Streptococcus mutans. In words: Antibacterial activity against Streptococcus mutans ATCC 25175 measured after overnight incubation by two-fold serial dilution method. Type of assay: functional.
Assay [3] has as its system Proteus mirabilis. In words: Antibiofilm activity against Proteus mirabilis ATCC 12453 measured after overnight incubation by crystal violet-staining based assay. Type of assay: functional.
Assay [4] has as its system Proteus mirabilis. In words: Antibacterial activity against Proteus mirabilis ATCC 12453 measured after overnight incubation by two-fold serial dilution method. It counts as functional.
The test system of assay [5] is Klebsiella pneumoniae. Description: Antibacterial activity against Klebsiella pneumoniae ATCC 13882 measured after overnight incubation by two-fold serial dilution method. It counts as functional.
Assay [6] concerns Klebsiella pneumoniae. Description: Antibiofilm activity against Klebsiella pneumoniae ATCC 13882 measured after overnight incubation by crystal violet-staining based assay. It counts as functional.
Assay [7] has as its system Staphylococcus aureus. Description: Antibacterial activity against methicillin-resistant Staphylococcus aureus ATCC 43300 measured after overnight incubation by two-fold serial dilution method. Type of assay: functional.
Assay [8] relates to Streptococcus mutans. In words: Antibiofilm activity against Streptococcus mutans ATCC 25175 measured after overnight incubation by crystal violet-staining based assay. It counts as functional.
For assay [9], the system named is Klebsiella pneumoniae. In words: Antibiofilm activity against Klebsiella pneumoniae ATCC 13882 at >= 50 ug/ml measured after overnight incubation by crystal violet-staining based assay. Type of assay: functional, organism-based.
Assay [10] concerns Proteus mirabilis. In words: Antibiofilm activity against Proteus mirabilis ATCC 12453 at >= 50 ug/ml measured after overnight incubation by crystal violet-staining based assay. Type of assay: functional, organism-based.

Values after ≈ are worked out from the molar mass of the structure shown. Active and inactive are the calls of the source.

One may read the MIC as the smallest concentration in the dilution series that meets the test's criterion for growth inhibition.

In the case of `C=CC1=C(C(=O)O)N2C(=O)[C@@H](NC(=O)/C(=N\OCC(=O)O)c3csc(N)n3)[C@H]2SC1` [CEFIXIME], the Activity in assay [1] turned out to be 73.5%; in [3], 72.6%; in [6], 94.78%; in assay [8], 96.06%. Also, the MBIC in assay [1] turned out to be 82 µg/mL; in [3], 40 µg/mL; in [6], 40 µg/mL; in assay [8] it was 40 µg/mL. The MIC turned out to be 40 µg/mL (≈ 88.2 µM) in assay [2], 40 µg/mL (≈ 88.2 µM) in assay [4], 40 µg/mL (≈ 88.2 µM) in assay [5] and 82 µg/mL (≈ 181 µM) in assay [7].
Take `CN[C@@H]1[C@@H](O)[C@@H](O[C@@H]2[C@@H](O)[C@H](O[C@H]3O[C@H](CN)CC[C@H]3N)[C@@H](N)C[C@H]2N)OC[C@]1(C)O.O=S(=O)(O)O`: the Activity in [1] was found to be 90.8%; in [3], 89.22%; in [6] it was 89.92%; in [8] it was 76.42%. In addition, the MBIC stood at 150 µg/mL in [1], 6.25 µg/mL in assay [3], 3 µg/mL in assay [6] and 10 µg/mL in [8]. The MIC came to 10 µg/mL in assay [2], 6.25 µg/mL in assay [4], 3 µg/mL in [5] and 135 µg/mL in assay [7].
In the case of `CC1(C)S[C@@H]2[C@H](N)C(=O)N2[C@H]1C(=O)O`, the Activity in [1] stood at 60.46%; in assay [3], 89.2%; in [6], 68.9%; in [8], 29.31%. The MBIC stood at 150 µg/mL in assay [1], 35 µg/mL in [3], 35 µg/mL in [6] and 7 µg/mL in assay [8]. Besides, the MIC in assay [2] worked out at 70 µg/mL (≈ 324 µM); in assay [4], 35 µg/mL (≈ 162 µM); in [5], 35 µg/mL (≈ 162 µM); in assay [7], 135 µg/mL (≈ 624 µM).
For the compound `CC1=CCC[C@@H]2[C@@](C)(CCC3=CC(=O)OC3Nc3ccc(F)cc3)[C@H](C)CC[C@@]12C` (mixture of isomers), the MIC entry in [2] is “inactive”.
`CC1=CCC[C@@H]2[C@@](C)(CCC3=CC(=O)OC3Nc3cccc(F)c3)[C@H](C)CC[C@@]12C` (mixture of isomers): the Activity in assay [1] is listed as 83.12%; in assay [3] it was 68.75%; in assay [8], 73.17%. Also, the values for the MIC in assay [2], in [4] and in assay [7] were 60 µg/mL, 125 µg/mL and 60 µg/mL, respectively. Also, the MBIC in assay [3] amounted to 110 µg/mL; in assay [8], 55 µg/mL. In addition, the result in assay [9] and in [10] was Active. Further, in assay [5], the MIC entry is “inactive”.
As to `CC1=CCC[C@@H]2[C@@](C)(CCC3=CC(=O)OC3Nc3ccccc3F)[C@H](C)CC[C@@]12C` (mixture of isomers), the Activity in [1] was 76.25%; in [3], 62.5%; in assay [8], 69.05%. The figures for the MIC in assay [2], in assay [4] and in assay [7] were 50 µg/mL, 125 µg/mL and 45 µg/mL, respectively. Also, the MBIC in [3] amounted to 90 µg/mL; in [8], 45 µg/mL. In addition, the outcome in [9] and in assay [10] was Active. Moreover, the MIC result in assay [5] was “inactive”.
As for `CC1=CCC[C@@H]2[C@@](C)(CCC3=CC(=O)OC3Nc3ccc(-c4ccc(NC5OC(=O)C=C5CC[C@@]5(C)[C@H](C)CC[C@@]6(C)C(C)=CCC[C@H]56)c(C)c4)cc3C)[C@H](C)CC[C@@]12C` (mixture of isomers), the MIC result in assay [2] was “inactive”.
`CC1=CCC[C@@H]2[C@@](C)(CC/C(C)=C/C(=O)O)[C@H](C)CC[C@@]12C`: the MIC entry in [2] is “inactive”.

The values above are taken from ChEMBL document CHEMBL4190260, “Antibiofilm potential of 16-oxo-cleroda-3, 13(14) E-diene-15 oic acid and its five new γ-amino γ-lactone derivatives against methicillin resistant Staphylococcus aureus and Streptococcus mutans” (2017).
